Assay results: patent US6849405B2, “Translation enhancer element of the human amyloid precursor protein gene” (The Brigham and Women's Hospital, Inc., priority 1997, dated 2005)

Assays:
Assay type in all cases: cell-based, human
APP-mRNA [1] = experiment: Northern blot of APP-mRNA, primary astrocytes
Method: (§1) Total RNA (10 μg) was extracted from primary astrocytes and astrocytoma cells with a RNA-STAT kit (Tel-Test). RNA samples were denatured in 50% formamide/2.2 M formaldehyde/20 mM MOPS/5 mM sodium acetate/0.5 mM EDTA, pH 7.4, at 60° C. for 10 minutes, electrophoresed on 1.0% agarose-formaldehyde gels, blotted onto Hybond-N filters and immobilized by UV crosslinking and heating filters to 80° C. Filters were prehybridized for 3 hours and hybridized overnight in a solution consisting of 50% formamide, […] denatured salmon sperm DNA, 5×SSC, 0.1% sodium dodecyl sulfate and 5×Denhardt's solution. Following hybridization, filters were washed twice for a total of 1 hour in 2×SSC/0.2% sodium dodecyl sulfate at room temperature and twice each for a total of 1 hour in 0.5×SSC/0.1% sodium dodecyl sulfate at 55° C. Equal loading was verified by ethidium bromide staining, non-specific hybridization of the ACT probe to the 28S rRNA, and by standardized hybridization to the GAPDH cDNA probe as an internal standard. The APP cDNA probe corresponded to the unique internal 1 kb fragment gel purified from the 3 kb APP cDNA (Kang et al. Nature 325: 733 (1987)), the ACT cRNA probe to a PstI/SacI fragment (536-943) in the human ACT cDNA (Chandra, et al., Biochemistry 22: 5055 (1983)) and the GAPDH probe to the human GAPDH gene (Tokunaga, et al., Cancer Res. 47: 5616 (1987)).

[2] = system: alpha-1 antichymotrypsin (ACT) mRNA; experiment: Northern blot of ACT-mRNA, primary astrocytes
Method: as §1

APP-mRNA [3] = experiment: Northern blot of APP-mRNA, astrocytoma cells; conditions: average of four Northern blot experiments
Method: as §1

## interleukin-1α [IL-1α]
APP-mRNA [1]
  APP-mRNA levels (Northern blot, densitometry): unchanged
[2]
  increase in ACT-mRNA levels (densitometry): greater than 10 fold

## interleukin-1β [IL-1β]
APP-mRNA [3]
  increase in steady-state levels of APP-mRNAs standardized to GAPDH-mRNA: 30%
